# Values of other authors in patent US20200069777A1, “ANTIMICROBIAL COMPOSITIONS AND FORMULATIONS” (Matoke Holdings Limited, priority 2016, published 2020).
# Details: 20° C. and 1 atm
compound,measurement,value
O=C[C@H](O)[C@@H](O)[C@H](O)[C@H](O)CO [Glucose],solubility,90 g/100 g water
